# Legend:
# ENA-78 [1] = assay: ENA-78 production by non-stimulated human umbilical vein endothelial cells, multiplex protein measurement; assay type: cell-based; conditions: 24 hours
# Description: (§1) Human umbilical vein endothelial cells were obtained (Clonetics Cell Systems; Cambrex Bio Science Walkersville, Inc., Walkersville, Md.). Approximately 5×10^5 viable cells were seeded in endothelial cell growth-supplemented basal medium (EGM-2-endothelial cell medium-2; Cambrex Bio Science Walkersville, Inc.) and maintained at 37° C. under a 5% carbon dioxide atmosphere per manufacturer's protocol. The culture medium was changed 24 hours after seeding and every 48 hours thereafter until confluence. Cells were then treated with trypsin, seeded in a 48-well culture dish, and incubated under the conditions previously described. Cells used in this Example were from the third passage.
# (§2) After cells reached 70-80% confluence in the culture dish, they were allowed to become quiescent in unsupplemented, serum-free medium for 24 hours before treatment and then placed in medium containing 2% fetal bovine serum. Atorvastatin (LKT Laboratories Inc., St. Paul, Minn.) was dissolved in dimethylsulfoxide (Sigma-Aldrich, St. Louis, Mo.). Cells were treated for 24 hours with atorvastatin 1-50 μM alone or with atorvastatin plus mevalonate 250 μM (Sigma-Aldrich). Controls were cells cultured without atorvastatin or atorvastatinmevalonate. […] All experiments were performed in duplicate.
# (§3) After treatment, culture-conditioned media were collected, divided into aliquots, and stored at −80° C. for no longer than 7 days until multiplex measurement of chemokines, cytokines, and angiogenic factors was performed.
# (§4) The culture-conditioned media protein content of epithelial neutrophil-activating peptide-78 (ENA-78), interleukin-8, (IL-8), monocyte chemotactic protein-1 (MCP-1), interleukin-6 (IL-6), interleukin-10 (IL-10), fibroblast growth factor (FGF), and granulocyte colony-stimulating factor (G-CSF) were measured by means of flow-based immunofluorescence multiplex detection (Fluorokine MAP Human Cytokine Panel; R&D Systems Inc., Minneapolis, Minn.) with the Luminex 100 IS platform (Luminex Corp., Austin, Tex.). Concentrations for each sample were normalized against milligrams of total protein by using a standard bicinchoninic acid protein assay (Pierce Biotechnology, Inc., Rockford, Ill.). Samples were assayed in duplicate.
# (§5) Standard curves of best fit for each analyte were generated by plotting the median fluorescence intensities of the analyte standards against their known concentrations by using Beadview multiplex data analysis software version 1 (Upstate, Charlottesville, Va.).
# (§6) Differences in biomolecular concentrations were compared by treatment group by applying one-way analysis of variance and a post-hoc Tukey's test as appropriate. The Jonckheere Terpstra test was performed to assess the trend for differences in biomolecular concentrations across concentrations of atorvastatin. […]
# IL-8 = IL-8 production by non-stimulated human umbilical vein endothelial cells, multiplex protein measurement; assay type: cell-based
# Description: as §1, §2, §3, §4, §5
# Differences in biomolecular concentrations were compared by treatment group by applying one-way analysis of variance and a post-hoc Tukey's test as appropriate. The Jonckheere Terpstra test was performed to assess the trend for differences in biomolecular concentrations across concentrations of atorvastatin. A p value below 0.05 was considered to indicate a statistically significant difference. Statistical analyses were performed with SPSS software, version 11.5 (SPSS Inc., Chicago, Ill.).
# MCP-1 = MCP-1 production by non-stimulated human umbilical vein endothelial cells, multiplex protein measurement; assay type: cell-based
# Description: as §1, §2, §3, §4, §5, §6
# IL-6 = IL-6 production by non-stimulated human umbilical vein endothelial cells, multiplex protein measurement; assay type: cell-based; conditions: increasing concentration of atorvastatin (1-50 μM), 24 hours, FIG. 11A
# Description: as §1, with “passage. […]” for “passage.”
# as §4, with “Concentrations for each sample were normalized against milligrams of total protein by using a standard bicinchoninic acid protein assay (Pierce Biotechnology, Inc., Rockford, Ill.). Samples were assayed in duplicate.” left out
# IL-10 = IL-10 production by non-stimulated human umbilical vein endothelial cells, multiplex protein measurement; assay type: cell-based; conditions: atorvastatin 1-50 μM, 24 hours, FIG. 11B
# Description: as §1, with “passage. […]” for “passage.”
# as §4, with “Concentrations for each sample were normalized against milligrams of total protein by using a standard bicinchoninic acid protein assay (Pierce Biotechnology, Inc., Rockford, Ill.). Samples were assayed in duplicate.” left out
# FGF = FGF production by non-stimulated human umbilical vein endothelial cells, multiplex protein measurement; assay type: cell-based; conditions: atorvastatin 1-50 μM, 24 hours, FIG. 12
# Description: as §1, with “passage. […]” for “passage.”
# as §4, with “Concentrations for each sample were normalized against milligrams of total protein by using a standard bicinchoninic acid protein assay (Pierce Biotechnology, Inc., Rockford, Ill.). Samples were assayed in duplicate.” left out
# G-CSF = G-CSF production by non-stimulated human umbilical vein endothelial cells, multiplex protein measurement; assay type: cell-based; conditions: atorvastatin 1-50 μM, 24 hours, FIG. 12
# Description: as §1, with “passage. […]” for “passage.”
# as §4, with “Concentrations for each sample were normalized against milligrams of total protein by using a standard bicinchoninic acid protein assay (Pierce Biotechnology, Inc., Rockford, Ill.). Samples were assayed in duplicate.” left out
# HUVECs = assay: HUVEC viability, trypan blue cell staining; assay type: cell-based, human; conditions: 24 hours of treatment, any dose of AT from 1 uM to 50 uM, FIG. 13
# Description: Human umbilical vein endothelial cells (HUVECs) (Clonetics Cell Systems; Cambrex Bio Science Walkersville, Inc., Walkersville, USA) were cultured as previously described. Briefly, HUVECs between passes three and four were seeded at a density of 2.5×10^4 cells per cm^2 and cultured to 80% confluence with endothelial cell growth-supplemented medium (EGM-2-endothelial cell medium-2; Cambrex Bio Science Walkersville, Inc.). Once confluent, media was changed to serum free endothelial basal media (EBM-2-endothelial cell medium-2; Cambrex Bio Science Walkersville, Inc.) for 24 hours prior to treatment, in which EBM-2 media supplemented to a 2% FBS concentration was used.
# Treatments consisted of atorvastatin calcium (AT; LKT Laboratories Inc., St. Paul, USA) 1-50 μM dissolved in dimethyl sulfoxide (DMSO), IL-1beta, mevalonate, farnesyl pyrophosphate (FPP), and geranylgeranyl pyrophosphate (GGPP) were purchased from Sigma-Aldrich (St. Louis, Mo.), with concentrations of 2 ng/ml, 250 μM, 5 μM, and 5 μM used respectively. All were dissolved in molecular grade water. All final DMSO concentrations were less then 0.1%.
# Cell viability was assessed by treating HUVECs with AT 1 μM, 5 μM, 10 μM, 25 μM, and 50 μM using trypan blue cell staining. […]
# ENA-78 [2] = assay: IL-1beta-stimulated ENA-78 production from HUVECs, cytometric immunofluorescence; assay type: cell-based, human; conditions: for ENA-78 production reduced by, compared with IL-1beta-stimulated cells in the absence of AT: AT pre-treatment 2 h before IL-1beta
# Description: Human umbilical vein endothelial cells (HUVECs) (Clonetics Cell Systems; Cambrex Bio Science Walkersville, Inc., Walkersville, USA) were cultured as previously described. Briefly, HUVECs between passes three and four were seeded at a density of 2.5×10^4 cells per cm^2 and cultured to 80% confluence with endothelial cell growth-supplemented medium (EGM-2-endothelial cell medium-2; Cambrex Bio Science Walkersville, Inc.). Once confluent, media was changed to serum free endothelial basal media (EBM-2-endothelial cell medium-2; Cambrex Bio Science Walkersville, Inc.) for 24 hours prior to treatment, in which EBM-2 media supplemented to a 2% FBS concentration was used. Treatments consisted of atorvastatin calcium (AT; LKT Laboratories Inc., St. […] All were dissolved in molecular grade water. All final DMSO concentrations were less then 0.1%. […] In experiments investigating the impact of AT on IL-1beta-stimulated ENA-78 production, HUVECs were pre-treated with AT followed by IL-1beta stimulation two hours later. […] In a separate set of experiments, cells were cultured with IL-1beta and AT in the presence or absence of mevalonate, FPP, and GGPP to determine whether AT inhibition of ENA-78 production was dependent on HMG-CoA reductase inhibition and subsequent downstream pathways. Cell culture supernates for all experiments were stored at -20° C. until analysis, which was performed within seven days. ENA-78 concentrations were measured and normalized to total protein content in cell culture supernates using cytometric immunofluorescence as previously described. Ribonucleic acid (RNA) was isolated using a commercial kit (RNeasy mini kit, Qiagen Inc., Valencia, USA). Complementary deoxyribonucleic acid (cDNA) conversion was performed by high capacity cDNA reverse transcription (Applied Biosystems, Foster City, USA) per protocol using roughly 2 μg of total RNA. RNA quality was assessed by absorbance (Nanodrop, Nanodrop Technologies, Wilmington, USA). Real-time reverse-transcription PCR (RT-PCR) was done using primer and probe sets for CXCL5 normalized to a housekeeping gene, glyceraldehyde-3-phosphate dehydrogenase (GAPDH; Taqman Gene Expression Assays, Applied Biosystems Inc.). […] PCR for both CXCL5 and GAPDH was performed at the same time using the following conditions: 95° C. for 2 minutes; 35 cycles of 95° C. for 30 seconds, 59° C. for 30 seconds, and 72° C. for 30 seconds; followed by 7 minutes of elongation at 72° C. Statistical differences in normalized protein concentrations and gene expression levels were determined by one way ANOVA and post-hoc Tukey analysis. […] An independent t-test was used to compare treatment differences at the same time points in the dose range analysis. […] Statistical analyses were performed with SPSS software, version 11.5 (SPSS Inc., Chicago, USA).
# CXCL5 = CXCL5 gene expression in HUVECs, real-time RT-PCR normalized to GAPDH; assay type: cell-based, human
# Description: Human umbilical vein endothelial cells (HUVECs) (Clonetics Cell Systems; Cambrex Bio Science Walkersville, Inc., Walkersville, USA) were cultured as previously described. Briefly, HUVECs between passes three and four were seeded at a density of 2.5×10^4 cells per cm^2 and cultured to 80% confluence with endothelial cell growth-supplemented medium (EGM-2-endothelial cell medium-2; Cambrex Bio Science Walkersville, Inc.). Once confluent, media was changed to serum free endothelial basal media (EBM-2-endothelial cell medium-2; Cambrex Bio Science Walkersville, Inc.) for 24 hours prior to treatment, in which EBM-2 media supplemented to a 2% FBS concentration was used. Treatments consisted of atorvastatin calcium (AT; LKT Laboratories Inc., St. […] All were dissolved in molecular grade water. All final DMSO concentrations were less then 0.1%. […] In experiments investigating the impact of AT on IL-1beta-stimulated ENA-78 production, HUVECs were pre-treated with AT followed by IL-1beta stimulation two hours later. […] In a separate set of experiments, cells were cultured with IL-1beta and AT in the presence or absence of mevalonate, FPP, and GGPP to determine whether AT inhibition of ENA-78 production was dependent on HMG-CoA reductase inhibition and subsequent downstream pathways. Cell culture supernates for all experiments were stored at -20° C. until analysis, which was performed within seven days. ENA-78 concentrations were measured and normalized to total protein content in cell culture supernates using cytometric immunofluorescence as previously described. Ribonucleic acid (RNA) was isolated using a commercial kit (RNeasy mini kit, Qiagen Inc., Valencia, USA). […] RNA quality was assessed by absorbance (Nanodrop, Nanodrop Technologies, Wilmington, USA). […] Statistical differences in normalized protein concentrations and gene expression levels were determined by one way ANOVA and post-hoc Tukey analysis. […]
compound,measurement,setting,value
CC(C)c1c(C(=O)Nc2ccccc2)c(-c2ccccc2)c(-c2ccc(F)cc2)n1CC[C@@H](O)C[C@@H](O)CC(=O)O [atorvastatin],reduction in ENA-78 production compared with untreated controls,"ENA-78 [1]; escalating concentrations of atorvastatin (10 μM to 50 μM), FIG. 10A",45-85%
same,ENA-78 production vs untreated control,ENA-78 [1]; lower concentrations of atorvastatin,not significantly altered
same,IL-8 concentrations lowered by,"IL-8; 1st of the four atorvastatin groups (1-50 μM), 24 hours",26%
same,IL-8 concentrations lowered by,"IL-8; 2nd of the four atorvastatin groups (1-50 μM), 24 hours",72%
same,IL-8 concentrations lowered by,"IL-8; 3rd of the four atorvastatin groups (1-50 μM), 24 hours",83%
same,IL-8 concentrations lowered by,"IL-8; 4th of the four atorvastatin groups (1-50 μM), 24 hours",89%
same,minimum effective concentration giving significant reduction in IL-8 compared with control,"IL-8; 24 hours, FIG. 10B",5 µM
same,IL-8 production,"IL-8; atorvastatin 5 μM, 24 hours (control 551±69)",155±45 pg/mg protein
same,MCP-1 concentrations vs control condition,MCP-1; concentrations of atorvastatin less than 50 μM,did not significantly differ
same,reduction in MCP-1,"MCP-1; highest concentration of atorvastatin (50 μM), 24 hours",83%
same,MCP-1 production,"MCP-1; highest concentration of atorvastatin (50 μM), 24 hours (control 4556±514)",782±105 pg/mg protein
same,graded reduction of IL-6 production,IL-6,29-83%
same,treatment effect on IL-10,IL-10,no treatment effect
same,concentrations of FGF,FGF,did not change
same,concentrations of G-CSF,G-CSF,did not change
same,HUVEC viability compared with control,HUVECs,no significant differences
same,"ENA-78 production reduced by, compared with IL-1beta-stimulated cells in the absence of AT","ENA-78 [2]; 1st of the five AT dose groups (1, 5, 10, 25, 50 μM)",38%
same,"ENA-78 production reduced by, compared with IL-1beta-stimulated cells in the absence of AT","ENA-78 [2]; 2nd of the five AT dose groups (1, 5, 10, 25, 50 μM)",70%
same,"ENA-78 production reduced by, compared with IL-1beta-stimulated cells in the absence of AT","ENA-78 [2]; 3rd of the five AT dose groups (1, 5, 10, 25, 50 μM)",78%
same,"ENA-78 production reduced by, compared with IL-1beta-stimulated cells in the absence of AT","ENA-78 [2]; 4th of the five AT dose groups (1, 5, 10, 25, 50 μM)",93%
same,"ENA-78 production reduced by, compared with IL-1beta-stimulated cells in the absence of AT","ENA-78 [2]; 5th of the five AT dose groups (1, 5, 10, 25, 50 μM)",99%
same,IL-1beta-stimulated ENA-78 production,ENA-78 [2]; AT at concentrations ≧25 uM,returned to baseline
same,IL-1beta-stimulated ENA-78 production,"ENA-78 [2]; IL-1beta and AT 10 uM, FIG. 16",1054 ± 349 pg/mg
same,time at which AT attenuation of ENA-78 production relative to IL-1beta was most pronounced,"ENA-78 [2]; time course 0, 4, 12, 24, 48 hours, FIG. 15",48 h
same,constitutive expression of CXCL5,"CXCL5; AT alone, 24 hours, FIG. 17",significantly lowered
same,CXCL5 expression compared to IL-1beta alone,CXCL5; pre-treated with 10 μM of AT followed by IL-1beta in two hours,no difference
farnesyl pyrophosphate [FPP],effect of co-treatment on the effect of AT on IL-1beta-stimulated ENA-78 production,"ENA-78 [2]; IL-1beta and AT 10 uM, mevalonate 250 μM, FPP 5 μM, GGPP 5 μM, FIG. 16",partially reversed

# From patent publication US20080045582A1, “ENA-78 Gene Polymorphisms and Protein Concentrations as Diagnostic and Prognostic Tools” (priority 2006, published 2008)
